Reference: patent publication US20220241249A1, “PHARMACEUTICAL COMPOSITION AND KIT CONTAINING NOVEL PENAM DERIVATIVE OR SALT THEREOF AND ONE OR MORE COMPOUNDS SELECTED FROM beta-LACTAMASE INHIBITORY COMPOUND AND ANTIBACTERIAL COMPOUND OR SALTS THEREOF” (priority 2019, published 2022)
Converted amounts (≈) assume the structure as drawn.

Tests used:
Assay type in all cases: cell-based
[1] = system: Escherichia coli TK-1765 strain producing CMY-2 (strain E); test: MIC of test compound alone or with β-lactamase inhibitor at 4 μg/mL; details: Escherichia coli
Experimental: (§1) By using a broth microdilution method, the combinational effect of a test compound and a β-lactamase inhibitor was evaluated.
(§2) The evaluation test for antibacterial activity was performed in the same manner as in Test Example 1.
Escherichia coli TK-1765 strain producing CMY-2 (hereinafter, called strain E)

[2] = system: Klebsiella pneumoniae Y-1020 strain producing KPC-3 and SHV-12 (strain B); test: as above; details: for MIC: Klebsiella pneumoniae, Strain B
Experimental: as §1, §2

[3] = system: GES-19 and GES-20-containing Pseudomonas aeruginosa strain (S-3759); test: Antibacterial activity evaluation test, MIC by broth microdilution (CLSI); details: Pseudomonas aeruginosa
Method in brief: (§3)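 MIC (μg/mL) = lowest drug concentration showing no visible bacterial growth after 16–20 h at 35° C. in cation-adjusted Mueller Hinton broth. Inoculum: agar-grown cells at 0.5 McFarland, diluted 10-fold.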

[4] = system: CTX-M-15-containing Escherichia coli strain (TK-1747); test: as above; details: Escherichia coli
Method in brief: as §3

[5] = system: VIM-2-containing Pseudomonas aeruginosa strain (S-3779); test: as above; details: Pseudomonas aeruginosa
Method in brief: as §3

[6] = system: AmpC-derepressed Pseudomonas aeruginosa mutant strain (S-3028); test: as above; details: Pseudomonas aeruginosa
Method in brief: as §3

[7] = system: Pseudomonas aeruginosa strain ATCC27853; test: as above; details: Pseudomonas aeruginosa, ATCC27853
Method in brief: as §3

[8] = system: IMP-1-containing Pseudomonas aeruginosa strain (S-2838); test: as above; details: Pseudomonas aeruginosa
Method in brief: as §3

[9] = system: KPC-2-containing Klebsiella pneumoniae strain (Y-995); test: as above; details: Klebsiella pneumoniae
Method in brief: as §3

[10] = system: OXA-48-containing Klebsiella pneumoniae strain (Y-1062); test: as above; details: Klebsiella pneumoniae
Method in brief: as §3

[11] = system: NDM-1-containing Klebsiella pneumoniae strain (Y-1007); test: as above; details: Klebsiella pneumoniae
Method in brief: as §3

[12] = system: Klebsiella pneumoniae ATCC13883 strain (Klebsiella pneumoniae A); test: Combinational effect of test compound and antibacterial compound, checkerboard FIC index
Experimental: (§4) By using a broth microdilution method, the combinational effect of antibacterial activity of a test compound and an antibacterial compound was evaluated.
(§5) As bacterial strains, an Escherichia coli ATCC25922 strain (hereinafter, called Escherichia coli A), a Klebsiella pneumoniae ATCC13883 strain (hereinafter, called Klebsiella pneumoniae A), and a Pseudomonas aeruginosa ATCC27853 strain (hereinafter, called Pseudomonas aeruginosa A) were used.
(§6) The minimum inhibitory concentration (hereinafter, called MIC) was measured according to the Clinical and Laboratory Standards Institute (CLSI) standard method by using the following broth microdilution method.
(§7) The bacterial cells that had been cultured overnight on a Mueller Hinton agar medium were scraped off, suspended at a density equivalent to 0.5 McFarland standard. The obtained suspension was diluted at 10 fold, thereby obtaining an inoculum. Cation-adjusted Mueller Hinton media containing only a test compound, containing only an antibacterial compound, or containing a test compound and an antibacterial compound were inoculated with 0.005 mL of the inoculum, and the cells were cultured at 35° C. for 18 to 20 hours. The minimum drug concentration at which the growth of bacteria was not visually observed was defined as MIC (μg/mL).
(§8) The FIC Index is the minimum value calculated by the following formula.
(§9) FIC Index=(MIC value obtained in a case where test compound is used in combination/MIC value obtained in a case where test compound is used alone)+(MIC value obtained in a case where antibacterial compound is used in combination/MIC value obtained in a case where antibacterial compound is used alone)
(§10) In a case where the FIC Index was 0.5 or less, it was decided that the use of two drugs in combination brings about a synergistic effect.
(§11) In a case where the FIC Index was more than 0.5 and 1 or less, it was decided that the use of two drugs in combination brings about an additive effect. (Diagnostic Microbiology and Infectious Disease, 2004, Vol. 49, p. 197)

[13] = system: Pseudomonas aeruginosa ATCC27853 strain (Pseudomonas aeruginosa A); test: as above; details: for FIC index: Pseudomonas aeruginosa A, checkerboard
Experimental: as §4, §5, §6, §7, §8, §9, §10, §11

[14] = test compound alone (β-lactamase inhibitor N/A)

SMILES: CC(C)(O/N=C(\C(=O)NC1C(=O)N2C[C@@](C(=O)O)(N3CCN(NC(=O)C(=O)c4ccc(O)c(O)c4Cl)C(=O)C3=O)S[C@H]12)c1csc(N)n1)C(=O)O (stereo partly drawn) [Example 126, (3R,5R,6R)-6-((Z)-2-(2-aminothiazol-4-yl)-2-(((2-carboxypropan-2-yl)oxy)imino)aceta-mido)-3-(4-(2-(2-chloro-3,4-dihydroxy-phenyl)-2-oxoaceta-mido)-2,3-dioxopipera-zin-1-yl)-7-oxo-4-thia-1-azabicyclo[3.2.0]-heptane-3-carboxylic acid]
- MIC [1, 14]: 2 µg/mL
- MIC ([1]; with AVI at 4 μg/mL): 0.25 µg/mL
- MIC ([1]; with TAZ at 4 μg/mL): 1 µg/mL
- MIC ([1]; with VAB at 4 μg/mL): 0.5 µg/mL
- MIC ([2]; AVI added at 4 μg/mL): 1 µg/mL
- MIC ([2]; NAC added at 4 μg/mL): 0.12 µg/mL
- MIC ([2]; ZID added at 4 μg/mL): 0.03 µg/mL
- MIC [2, 14]: 4 µg/mL
- antibacterial activity in combination with a β-lactamase inhibitor versus without ([2]; for all the bacterial strains (strains A to E), summary of Tables 43 to 47): higher antibacterial activity
- MIC [3]: 0.5 µg/mL (≈ 0.65 µM)
- MIC [4]: < 0.06 µg/mL
- MIC [5]: 1 µg/mL (≈ 1.3 µM)
- MIC [6]: 0.5 µg/mL (≈ 0.65 µM)
- MIC [7]: 1 µg/mL (≈ 1.3 µM)
- MIC [8]: 2 µg/mL (≈ 2.6 µM)
- MIC [9]: 0.12 µg/mL (≈ 0.156 µM)
- MIC [10]: 1 µg/mL (≈ 1.3 µM)
- MIC [11]: < 0.06 µg/mL
- FIC index ([12]; in combination with AMK): 0.75
- FIC index ([12]; in combination with CAZ): 0.625
- FIC index ([12]; in combination with IPM): 0.375
- FIC index ([12]; in combination with LVFX): 0.75
- FIC index ([12]; in combination with MPC): 0.188
- FIC index ([12]; in combination with PIPC): <0.5
- FIC index ([12]; in combination with PL-B): 0.625
- FIC index ([12]; in combination with RFP): 0.563
- FIC index ([12]; in combination with VCM): <0.625
- FIC index ([13]; in combination with AMK): 0.5
- FIC index ([13]; in combination with CAZ): 0.563
- FIC index ([13]; in combination with IPM): 0.188
- FIC index ([13]; in combination with LVFX): 0.188
- FIC index ([13]; in combination with PIPC): 0.75
- FIC index ([13]; in combination with PL-B): 0.188
- FIC index ([13]; in combination with RFP): 0.375
- FIC index ([13]; in combination with TC): 0.25
- FIC index ([13]; in combination with VCM): 0.266
- combinational effect with other antibacterial compounds ([13]; main strains of Gram-negative bacteria, summary of Tables 40 to 42): additive or synergistic effect
